Tests used:
hMsrB3 = target: T1, hMsrB3 (Homo sapiens, UniProt Q8IXL7); assay: Colorimetric assay for Msr activity based on the reduction of DABS-met(o); type: biochemical; conditions: for activity of chelating agent in place of EDTA with Zn-MT: EGTA 5 or 20 mM, deferoxamine 5 mM, zincon 500 μM
T1 construct: made in house; host or cells: BL21 E. coli
T1 sequence (Q8IXL7 33-192): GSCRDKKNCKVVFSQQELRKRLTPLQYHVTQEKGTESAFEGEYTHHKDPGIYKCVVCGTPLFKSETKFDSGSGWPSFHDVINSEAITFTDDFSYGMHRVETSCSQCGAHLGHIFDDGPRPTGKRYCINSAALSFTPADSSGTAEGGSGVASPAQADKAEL
Experimental: (§1) The reaction mixture (200 μl) to measure Msr activity contained 100 mM Tris-Cl pH 7.4, 100 nmoles of the indicated DABS-met(o) epimer (see Materials), either 15 mM DTT or the Trx regenerating system (Trx, 10 μg, Trx reductase, 2.4 μg, NADPH, 500 μM) and Msr enzyme as indicated. When the liver fractions (Zn-MT, T or T(o)) were tested, DTT was omitted and the Trx reducing system and 5 mM EDTA were added as indicated. Incubations were for 60 minutes at 37° C. unless noted otherwise. […] The quantitation of DABS-met formed employed a slight modification of an extraction procedure previously described by Etienne et al (Etienne, F., Resnick, L., Sagher, D., Brot, N. & Weissbach, H. (2003) Biochem Biophys Res Commun 312, 1005-1010) for the reduction of sulindac to sulindac sulfide by MsrA. The reactions were stopped by the addition of 200 μl of 1 M sodium acetate pH 6.0, followed by the addition of 100 μL of acetonitrile and 1 ml of benzene. After thorough shaking and centrifugation, the optical density of the benzene layer was read at 436 nm. […] Unless indicated otherwise, the results are presented as nmoles DABS-met formed in 60 minutes.

hMsrB2 = target: T2, hMsrB2 (Homo sapiens, UniProt Q9Y3D2); assay: as above; type: biochemical; conditions: for nmoles DABS-met: hMsrB2 2.7 μg
T2 construct: made in house; host or cells: E. coli
Experimental: as §1

eMsrA = target: T3, eMsrA (Escherichia coli, UniProt P0A744); assay: as above; type: biochemical, E. coli; conditions: for nmoles DABS-met: eMsrA 1.6 μg
T3 construct: made in house; host or cells: E. coli
Experimental: as §1

eMsrB [1] = target: T4, eMsrB (Escherichia coli, UniProt P0A746); assay: as above; type: biochemical, E. coli
T4 construct: made in house; host or cells: E. coli
Experimental: as §1

bMsrA = target: T5, bMsrA (Bos taurus, UniProt P54149); assay: as above; type: biochemical, bovine
T5 construct: made in house; host or cells: E. coli
T5 sequence (P54149 21-233): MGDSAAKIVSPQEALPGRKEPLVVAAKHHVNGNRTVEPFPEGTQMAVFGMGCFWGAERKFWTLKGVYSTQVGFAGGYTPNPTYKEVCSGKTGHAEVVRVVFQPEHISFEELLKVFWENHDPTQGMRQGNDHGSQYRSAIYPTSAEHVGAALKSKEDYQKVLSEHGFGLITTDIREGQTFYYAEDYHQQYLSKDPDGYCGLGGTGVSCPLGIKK
Experimental: as §1

MsrA = target: T6, MsrA (Rattus norvegicus, UniProt Q923M1); assay: MsrA activity in cardiomyocytes, reduction of sulindac to sulindac sulfide; type: cell-based; conditions: for amount of product (sulindac sulfide): primary neonatal rat cardiomyocytes, 400 μM sulindac
T6 construct: endogenous in cells; host or cells: primary neonatal rat cardiomyocytes
T6 sequence (Q923M1 21-233): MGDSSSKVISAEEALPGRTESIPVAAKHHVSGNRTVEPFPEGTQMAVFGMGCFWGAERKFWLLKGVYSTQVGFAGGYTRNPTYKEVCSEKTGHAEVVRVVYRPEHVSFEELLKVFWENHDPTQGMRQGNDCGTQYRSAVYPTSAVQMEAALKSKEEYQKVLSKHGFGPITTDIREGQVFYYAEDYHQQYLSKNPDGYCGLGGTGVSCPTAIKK
Experimental: FIG. 10 is a graph showing selenocystamine (SeCm) can enhance MsrA activity in cardiomyocytes. Cardiomyocytes were incubated with 400 μM sulindac and indicated concentration of selenocystamine. Briefly, primary neonatal rat cardiomyocytes (approximately 10^6 cells per treatment) were incubated with sulindac and two different concentrations of selenocystamine. Sulindac is a substrate for MsrA, and the amount of the reduced product, sulindac sulfide, indicates the amount of MsrA activity. The amount of product is 2.7, 3.7 and 5.6 picomoles for 0, 5 μM and 50 μM selenocystamine, respectively. This amounts to a 37% and 107% stimulation.

Msr enzymes = assay: Msr activity assay, statements on the Msr enzymes as a group; type: biochemical; conditions: no Trx system or T
Experimental: as §1

Zn-MT = conditions: appearance of free SH groups
Experimental: Briefly, purified Zn-MT was dialyzed against 10 mM HCl (pH 2.0) containing 150 mM NaCl for 12 hours at 4° C. The protein after dialysis is reduced, metal-free T and appears stable when left at pH 2.0. To study the activity of T in the Msr system, T was neutralized and added to the reaction mixtures immediately before the incubations were initiated. To oxidize T, 0.75 volumes of 50 mM Tris base were added to the T sample to bring the pH to 8.5. Under these conditions, approximately 50% of the sulfhydryls will become oxidized after 4 hours at room temperature or 2 hours at 37° C. With longer incubations, the T(o) started to precipitate.

T(o) = target: T7, T(o) (Bos taurus, UniProt P68301); assay: Reduction of T(o) by Trx, oxidation of NADPH followed at 340 nm; type: biochemical, bovine; conditions: FIG. 4; 100 μM NADPH, 26 μg Trx, 6 μg TrxB, 28 μg partially-oxidized T
T7 construct: Fresh bovine liver was homogenized in 3 volumes of 50 mM Tris, pH 7.4; from tissue; host or cells: bovine liver
Experimental: To study the reduction of T(o) by Trx, the reaction mixtures contained, in a total volume of 1 ml, 100 μM NADPH, 26 μg Trx, 6 μg TrxB and 28 μg of partially-oxidized T (see above). The oxidation of NADPH was followed at 340 nm at room temperature.

eMsrB [2] = target: T8, eMsrB (Escherichia coli, UniProt P0A746); assay: Colorimetric assay for Msr activity based on the reduction of DABS-met(o); type: biochemical, E. coli; remark: listed apart in the source
T8 construct: made in house; host or cells: E. coli
T8 sequence (P0A746 whole entry, looked up): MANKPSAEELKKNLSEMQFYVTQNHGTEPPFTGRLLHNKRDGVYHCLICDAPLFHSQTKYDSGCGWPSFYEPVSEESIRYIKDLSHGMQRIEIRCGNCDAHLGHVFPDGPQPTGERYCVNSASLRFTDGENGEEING
Experimental: as §1

[3] = Table 1, hMsrB3 2.3 μg, DABS-met-R-(o), 15 mM DTT or Trx regenerating system, 60 minutes at 37° C.
[4] = Table 1, DABS-met-R-(o), 15 mM DTT or Trx regenerating system, 60 minutes at 37° C.
[5] = Table 2, 20 nmoles Zn-MT with 5 mM EDTA, or 15 mM DTT
[6] = Table 1, DABS-met-S-(o), 15 mM DTT or Trx regenerating system, 60 minutes at 37° C.
[7] = Table 1, eMsrB 2.7 μg, DABS-met-R-(o), 15 mM DTT or Trx regenerating system, 60 minutes at 37° C.
[8] = Table 1, bMsrA 2 μg, DABS-met-S-(o), 15 mM DTT or Trx regenerating system, 60 minutes at 37° C.
[9] = mammalian Trx and mammalian Trx reductase

T2 sequence (Q9Y3D2 21-182): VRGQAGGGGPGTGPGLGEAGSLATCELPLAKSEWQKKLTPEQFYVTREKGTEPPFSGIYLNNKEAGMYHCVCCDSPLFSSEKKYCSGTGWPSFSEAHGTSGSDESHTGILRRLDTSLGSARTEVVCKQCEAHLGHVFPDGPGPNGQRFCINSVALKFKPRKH
T3 sequence (P0A744 whole entry): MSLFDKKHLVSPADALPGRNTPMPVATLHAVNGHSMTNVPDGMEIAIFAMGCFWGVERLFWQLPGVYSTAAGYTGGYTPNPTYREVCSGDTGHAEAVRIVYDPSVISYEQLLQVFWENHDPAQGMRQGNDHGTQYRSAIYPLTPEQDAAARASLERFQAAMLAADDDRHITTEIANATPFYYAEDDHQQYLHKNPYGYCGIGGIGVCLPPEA
T7 sequence (P68301 whole entry): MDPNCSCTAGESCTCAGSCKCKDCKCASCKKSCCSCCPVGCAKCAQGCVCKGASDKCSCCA

**Q.** Which “nmoles DABS-met” value (hMsrB3; [3]) does the source give for `O[C@@H](CS)[C@@H](O)CS` [DTT, reference compound] here?
**A.** 53.8 nmol

**Q.** And the “nmoles DABS-met” value (hMsrB3; Table 2, hMsrB3 2.3 μg, 20 nmoles Zn-MT with 5 mM EDTA, or 15 mM DTT)?
**A.** 53.7 nmol

**Q.** What about the “nmoles DABS-met formed” value (hMsrB3; experiment of Table 3, hMsrB3 2.3 μg, 15 mM DTT) of the same molecule?
**A.** 52.7 nmol

**Q.** What about the “nmoles DABS-met” value (hMsrB2; [4]) of the same molecule?
**A.** 31.3 nmol

**Q.** And the “nmoles DABS-met” value (hMsrB2; [5])?
**A.** 27.1 nmol

**Q.** And the “nmoles DABS-met” value (eMsrA; [6])?
**A.** 46.2 nmol

**Q.** What about the “nmoles DABS-met” value (eMsrA; [5]) of the same molecule?
**A.** 45.7 nmol

**Q.** And the “nmoles DABS-met” value (eMsrB [1]; [7])?
**A.** 11.1 nmol

**Q.** What about the “nmoles DABS-met” value (eMsrB [1]; Table 2, eMsrB 5.4 μg, 20 nmoles Zn-MT with 5 mM EDTA, or 15 mM DTT) of the same molecule?
**A.** 27.8 nmol

**Q.** What about the “nmoles DABS-met” value (bMsrA; [8]) of the same molecule?
**A.** 30.0 nmol

**Q.** What about the “nmoles DABS-met” value (bMsrA; Table 2, bMsrA 2.0 μg, 20 nmoles Zn-MT with 5 mM EDTA, or 15 mM DTT) of the same molecule?
**A.** 38.9 nmol

**Q.** How did the “stimulation of MsrA activity” value (MsrA; 5 μM selenocystamine versus 0) turn out when `NCC[Se][Se]CCN` [SeC, selenocystamine] was run?
**A.** 37%

**Q.** And the “stimulation of MsrA activity” value (MsrA; 50 μM selenocystamine versus 0)?
**A.** 107%

**Q.** And the “amount of product (sulindac sulfide)” value (MsrA; 5 μM selenocystamine)?
**A.** 3.7 picomoles

**Q.** And the “amount of product (sulindac sulfide)” value (MsrA; 50 μM selenocystamine)?
**A.** 5.6 picomoles

**Q.** And the “activity of SeC by itself” value (Msr enzymes)?
**A.** no activity

**Q.** And the “final concentration of SeC at maximal stimulation” value (hMsrB3; FIG. 7, NADPH and Trx reductase or T as primary reducing agent)?
**A.** 50 µM

**Q.** What about the “stimulation by SeC above the Trx system alone” value (eMsrA; E. coli enzymes) of the same molecule?
**A.** less than a twofold stimulation

**Q.** And the “stimulation by SeC” value (eMsrA; complete Trx system, eMsrA)?
**A.** 10-20%

**Q.** And the “stimulation by SeC above the Trx system alone” value (eMsrB [1]; E. coli enzymes)?
**A.** less than a twofold stimulation

**Q.** And the “stimulation by SeC” value (eMsrB [1]; complete Trx system, eMsrB)?
**A.** 10-20%

**Q.** What about the “increase of activity in the presence of SeC” value (bMsrA; complete Trx system, bMsrA) of the same molecule?
**A.** more than 3 fold

**Q.** Which “effect of EDTA by itself on hMsrB3 activity” value (hMsrB3; EDTA alone) does the source give for `O=C(O)CN(CCN(CC(=O)O)CC(=O)O)CC(=O)O` [EDTA, ethylenediaminetetraacetic acid] here?
**A.** no significant effect

**Q.** What about the “levels of EDTA giving optimal activity” value (hMsrB3; heated liver S-100 as reducing source) of the same molecule?
**A.** above 2.5 mM

**Q.** What about the “time for removal of zinc from Zn-MT” value (Zn-MT) of the same molecule?
**A.** less than 10 minutes

**Q.** And the “zinc removed from Zn-MT” value (Zn-MT)?
**A.** > 90%

**Q.** For `c1cnc2c(c1)ccc1cccnc12` [1,10-phenanthroline], which “activity relative to EDTA, chelating agent in place of EDTA with Zn-MT” value (hMsrB3; 5 mM) is on record?
**A.** about 40%

**Q.** With `O=C(O)CN(CCOCCOCCN(CC(=O)O)CC(=O)O)CC(=O)O` [EGTA] as the molecule, how does the “activity of chelating agent in place of EDTA with Zn-MT” value (“activity of chelating agent” below) (hMsrB3) read?
**A.** inactive

**Q.** `O=C(O)c1ccccc1NN=C(N=Nc1cc(S(=O)(=O)O)ccc1O)c1ccccc1` [zincon] was tested. Which “activity of chelating agent” value (hMsrB3) did it give?
**A.** inactive

**Q.** How did the “oxidation of NADPH” value (T(o)) turn out when “Trx: thioredoxin overexpressed and purified from E. coli; used as Trx regenerating system with Trx reductase and NADPH” was run?
**A.** dependent on Trx, Trx reductase and T(o)

**Q.** And the “Ratio Trx/DTT” value (hMsrB3; Table 1, hMsrB3)?
**A.** 0.03

**Q.** What about the “nmoles DABS-met” value (hMsrB3; [3]) of the same molecule?
**A.** 1.7 nmol

**Q.** What about the “nmoles DABS-met” value (hMsrB3; Table 3 line 2, hMsrB3 2.3 μg, no T(o), Trx + NADPH + Trx reductase) of the same molecule?
**A.** 2.4 nmol

**Q.** And the “activity with Trx relative to the activity seen with DTT” value (hMsrB3; hMsrB3)?
**A.** less than 10%

**Q.** And the “Ratio Trx/DTT” value (hMsrB2; Table 1, hMsrB2)?
**A.** 0.03

**Q.** And the “nmoles DABS-met” value (hMsrB2; [4])?
**A.** 0.8 nmol

**Q.** And the “activity with Trx relative to the activity seen with DTT” value (hMsrB2; hMsrB2)?
**A.** less than 10%

**Q.** And the “Ratio Trx/DTT” value (eMsrA; Table 1, eMsrA)?
**A.** 1.0

**Q.** What about the “nmoles DABS-met” value (eMsrA; [6]) of the same molecule?
**A.** 46.8 nmol

**Q.** What about the “Ratio Trx/DTT” value (eMsrB [2]; Table 1, eMsrB) of the same molecule?
**A.** 5.4

**Q.** And the “nmoles DABS-met” value (eMsrB [2]; [7])?
**A.** 60.3 nmol

**Q.** And the “Ratio Trx/DTT” value (bMsrA; Table 1, bMsrA)?
**A.** 0.53

**Q.** And the “nmoles DABS-met” value (bMsrA; [8])?
**A.** 15.8 nmol

**Q.** How did the “activity of chelating agent” value (hMsrB3) turn out when `CC(=O)N(O)CCCCCNC(=O)CCC(=O)N(O)CCCCCNC(=O)CCC(=O)N(O)CCCCCN` [deferoxamine] was run?
**A.** inactive

B1: mammalian Trx: reduced mammalian Trx with mammalian Trx reductase; human Trx from Sigma, rat Trx reductase (TR3) (protein, UniProt P10599 2-105, looked up)
Thioredoxin: VKQIESKTAFQEALDAAGDKLVVVDFSATWCGPCKMIKPFFHSLSEKYSNVIFLEVDVDDCQDVASECEVKCMPTFQFFKKGQKVGEFSGANKEKLEATINELV
modifications: with rat Trx reductase
**Q.** How did the “activity with reduced mammalian Trx” value (hMsrB3; [9]) turn out when B1 was run?
**A.** very poor activity

**Q.** And the “use of Trx from either source” value (eMsrA; [9])?
**A.** efficiently used

**Q.** What about the “use of Trx from either source” value (eMsrB [2]; [9]) of the same molecule?
**A.** efficiently used

Source: patent US20090312238A1, “Protection Against Oxidative Damage in Cells” (Florida Atlantic University, priority 2006, published 2009)
